Data: ChEMBL document CHEMBL3526086, “Identification of the oxidative and conjugative enzymes involved in the biotransformation of brivanib” (Drug Metab Dispos, 2012)
Blank lines part the entries; values can stand above or below the compound they belong to.

Assays:
Cytochrome P450 2C19 = Cytochrome P450 2C19 (Homo sapiens, UniProt P33261); experiment: Activity of human CYP2C19 assessed as compound formation treated with 2 and 20 uM brivanib for 20 mins by LC/MS analysis in presence of NADPH; format: ADME
Sequence of Cytochrome P450 2C19 (P33261 whole entry): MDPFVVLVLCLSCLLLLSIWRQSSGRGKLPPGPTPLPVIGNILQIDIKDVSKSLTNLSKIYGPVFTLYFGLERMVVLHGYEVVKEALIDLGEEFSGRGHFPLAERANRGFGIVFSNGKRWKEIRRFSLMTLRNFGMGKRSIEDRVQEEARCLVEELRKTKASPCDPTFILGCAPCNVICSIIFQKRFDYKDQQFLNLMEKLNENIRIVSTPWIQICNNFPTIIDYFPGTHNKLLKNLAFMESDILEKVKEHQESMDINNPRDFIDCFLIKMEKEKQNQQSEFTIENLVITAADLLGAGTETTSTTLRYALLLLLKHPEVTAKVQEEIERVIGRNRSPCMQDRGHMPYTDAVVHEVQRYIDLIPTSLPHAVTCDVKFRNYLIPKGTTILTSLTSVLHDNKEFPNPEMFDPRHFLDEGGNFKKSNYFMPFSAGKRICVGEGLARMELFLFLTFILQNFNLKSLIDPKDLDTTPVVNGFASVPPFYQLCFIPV

Cytochrome P450 2D6 = Cytochrome P450 2D6 (Homo sapiens, UniProt P10635); experiment: Activity of human CYP2D6 assessed as compound formation treated with 2 and 20 uM brivanib for 20 mins by LC/MS analysis in presence of NADPH; format: ADME
Sequence of Cytochrome P450 2D6 (P10635 whole entry): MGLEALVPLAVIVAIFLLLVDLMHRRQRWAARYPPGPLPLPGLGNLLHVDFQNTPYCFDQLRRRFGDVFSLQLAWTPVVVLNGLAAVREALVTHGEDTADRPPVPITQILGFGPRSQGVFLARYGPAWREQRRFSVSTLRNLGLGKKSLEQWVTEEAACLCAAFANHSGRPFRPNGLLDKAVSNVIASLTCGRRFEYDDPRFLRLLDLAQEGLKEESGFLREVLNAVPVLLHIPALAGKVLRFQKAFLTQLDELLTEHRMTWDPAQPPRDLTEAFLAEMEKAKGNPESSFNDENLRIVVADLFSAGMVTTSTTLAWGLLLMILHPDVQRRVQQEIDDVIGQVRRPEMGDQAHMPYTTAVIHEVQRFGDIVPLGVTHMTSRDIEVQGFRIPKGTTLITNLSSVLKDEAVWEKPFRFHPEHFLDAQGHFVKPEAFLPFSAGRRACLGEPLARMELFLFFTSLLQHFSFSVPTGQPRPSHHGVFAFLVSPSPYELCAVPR

Liver microsome [1] = experiment: Drug level in human liver microsomes assessed as compound formation treated with 2 uM [14C]brivanib alaninate for 60 mins by LC/MS analysis in presence of NADPH; format: ADME; details: 1 h
Liver microsome [2] = experiment: Drug level in human liver microsomes treated with 2 and 20 uM brivanib for 30 mins by LC/MS analysis in presence of 50 uM CYP2B6 inhibitor orphenadrine; format: ADME; details: 0.5 h
Cytochrome P450 3A5 = Cytochrome P450 3A5 (Homo sapiens, UniProt P20815); experiment: Activity of human CYP3A5 assessed as compound formation treated with 2 and 20 uM brivanib for 20 mins by LC/MS analysis in presence of NADPH; format: ADME
Sequence of Cytochrome P450 3A5 (P20815 whole entry): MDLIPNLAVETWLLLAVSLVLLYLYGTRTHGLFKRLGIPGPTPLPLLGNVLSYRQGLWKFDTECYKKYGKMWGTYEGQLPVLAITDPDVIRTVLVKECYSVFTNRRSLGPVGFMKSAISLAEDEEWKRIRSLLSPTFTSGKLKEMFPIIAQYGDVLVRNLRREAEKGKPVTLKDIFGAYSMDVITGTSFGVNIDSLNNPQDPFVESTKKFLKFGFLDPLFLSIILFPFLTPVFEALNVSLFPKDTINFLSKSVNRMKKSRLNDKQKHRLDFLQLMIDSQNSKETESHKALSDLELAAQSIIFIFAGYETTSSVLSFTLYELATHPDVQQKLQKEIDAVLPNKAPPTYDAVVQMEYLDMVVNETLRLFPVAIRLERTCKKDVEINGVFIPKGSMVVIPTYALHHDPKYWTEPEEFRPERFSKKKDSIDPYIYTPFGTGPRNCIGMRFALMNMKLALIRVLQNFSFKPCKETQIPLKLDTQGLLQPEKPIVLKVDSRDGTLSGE

Cytochrome P450 1B1 = Cytochrome P450 1B1 (Homo sapiens, UniProt Q16678); experiment: Activity of human CYP1B1 assessed as compound formation treated with 2 and 20 uM brivanib for 20 mins by LC/MS analysis in presence of NADPH; format: ADME
Cytochrome P450 2C9 = Cytochrome P450 2C9 (Homo sapiens, UniProt P11712); experiment: Activity of human CYP2C9 assessed as compound formation treated with 2 and 20 uM brivanib for 20 mins by LC/MS analysis in presence of NADPH; format: ADME
Sequence of Cytochrome P450 2C9 (P11712 whole entry): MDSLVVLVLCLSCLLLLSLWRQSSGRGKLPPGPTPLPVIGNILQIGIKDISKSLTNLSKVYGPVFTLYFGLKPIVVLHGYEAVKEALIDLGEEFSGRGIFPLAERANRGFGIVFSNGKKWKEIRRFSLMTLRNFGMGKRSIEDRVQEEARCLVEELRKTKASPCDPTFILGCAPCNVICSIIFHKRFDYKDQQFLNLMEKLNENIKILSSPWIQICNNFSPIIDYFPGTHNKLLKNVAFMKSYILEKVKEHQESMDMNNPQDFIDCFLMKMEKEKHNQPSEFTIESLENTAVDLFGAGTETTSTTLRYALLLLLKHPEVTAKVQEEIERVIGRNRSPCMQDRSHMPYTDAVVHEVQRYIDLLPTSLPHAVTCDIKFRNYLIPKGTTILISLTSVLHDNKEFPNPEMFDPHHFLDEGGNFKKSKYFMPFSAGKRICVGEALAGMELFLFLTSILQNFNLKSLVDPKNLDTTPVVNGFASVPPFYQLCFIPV

Cytochrome P450 2B6 = target: T1, Cytochrome P450 2B6 (Homo sapiens, UniProt P20813); experiment: Activity of human CYP2B6 assessed as compound formation treated with 2 and 20 uM brivanib for 20 mins by LC/MS analysis in presence of NADPH; format: ADME
T1 sequence (P20813 whole entry): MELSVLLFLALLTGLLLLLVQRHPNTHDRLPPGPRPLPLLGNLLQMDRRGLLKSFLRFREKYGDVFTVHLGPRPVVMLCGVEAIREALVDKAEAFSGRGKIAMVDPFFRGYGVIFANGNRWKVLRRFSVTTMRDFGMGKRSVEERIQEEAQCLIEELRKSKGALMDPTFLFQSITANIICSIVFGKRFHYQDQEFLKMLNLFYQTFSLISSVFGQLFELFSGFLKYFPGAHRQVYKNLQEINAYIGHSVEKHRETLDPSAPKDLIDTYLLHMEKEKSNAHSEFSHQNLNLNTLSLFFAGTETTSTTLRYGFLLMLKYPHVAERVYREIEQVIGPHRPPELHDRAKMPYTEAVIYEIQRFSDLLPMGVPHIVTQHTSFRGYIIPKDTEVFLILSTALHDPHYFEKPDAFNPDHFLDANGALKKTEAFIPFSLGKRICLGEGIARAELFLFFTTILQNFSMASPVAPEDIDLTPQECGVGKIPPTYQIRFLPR

Cytochrome P450 2C8 = target: T2, Cytochrome P450 2C8 (Homo sapiens, UniProt P10632); experiment: Activity of human CYP2C8 assessed as compound formation treated with 2 and 20 uM brivanib for 20 mins by LC/MS analysis in presence of NADPH; format: ADME
T2 sequence (P10632 whole entry): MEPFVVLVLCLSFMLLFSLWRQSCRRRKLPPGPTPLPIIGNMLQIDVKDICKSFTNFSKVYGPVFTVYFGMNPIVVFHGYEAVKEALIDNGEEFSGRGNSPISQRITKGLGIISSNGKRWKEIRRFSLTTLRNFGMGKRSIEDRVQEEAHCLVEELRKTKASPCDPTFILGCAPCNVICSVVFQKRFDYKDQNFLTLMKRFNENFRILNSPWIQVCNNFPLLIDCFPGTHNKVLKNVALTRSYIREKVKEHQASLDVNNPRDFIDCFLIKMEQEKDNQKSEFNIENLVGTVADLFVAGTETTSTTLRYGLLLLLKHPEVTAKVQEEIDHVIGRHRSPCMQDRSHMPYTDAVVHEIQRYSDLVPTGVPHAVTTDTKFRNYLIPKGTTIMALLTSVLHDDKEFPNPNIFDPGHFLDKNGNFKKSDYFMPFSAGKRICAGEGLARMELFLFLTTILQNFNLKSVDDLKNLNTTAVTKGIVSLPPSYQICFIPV

Liver microsome [3] = experiment: Drug level in human liver microsomes treated with 2 and 20 uM brivanib for 30 mins by LC/MS analysis in presence of 2 uM CYP2A6 inhibitor tranylcypromine; format: ADME; details: 0.5 h
Cytochrome P450 3A4 = Cytochrome P450 3A4 (Homo sapiens, UniProt P08684); experiment: Activity of human CYP3A4 assessed as compound formation treated with 2 and 20 uM brivanib for 20 mins by LC/MS analysis in presence of NADPH; format: ADME
Sequence of Cytochrome P450 3A4 (P08684 whole entry): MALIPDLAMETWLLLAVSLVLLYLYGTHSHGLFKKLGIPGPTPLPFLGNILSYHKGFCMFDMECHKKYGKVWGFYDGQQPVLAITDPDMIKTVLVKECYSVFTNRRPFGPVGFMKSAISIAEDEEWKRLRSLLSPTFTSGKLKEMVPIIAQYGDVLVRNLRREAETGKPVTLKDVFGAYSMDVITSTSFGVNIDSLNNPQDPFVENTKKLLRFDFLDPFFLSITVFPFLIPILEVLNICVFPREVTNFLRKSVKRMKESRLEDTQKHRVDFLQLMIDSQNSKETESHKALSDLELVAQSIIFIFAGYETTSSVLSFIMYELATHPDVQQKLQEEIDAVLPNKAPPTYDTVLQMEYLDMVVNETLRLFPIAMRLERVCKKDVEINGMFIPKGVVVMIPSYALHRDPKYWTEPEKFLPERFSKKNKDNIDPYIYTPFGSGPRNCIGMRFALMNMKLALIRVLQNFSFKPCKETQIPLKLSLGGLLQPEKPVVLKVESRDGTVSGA

Cytochrome P450 2A6 = target: T3, Cytochrome P450 2A6 (Homo sapiens, UniProt P11509); experiment: Activity of human CYP2A6 assessed as compound formation treated with 2 and 20 uM brivanib for 20 mins by LC/MS analysis in presence of NADPH; format: ADME
T3 sequence (P11509 whole entry): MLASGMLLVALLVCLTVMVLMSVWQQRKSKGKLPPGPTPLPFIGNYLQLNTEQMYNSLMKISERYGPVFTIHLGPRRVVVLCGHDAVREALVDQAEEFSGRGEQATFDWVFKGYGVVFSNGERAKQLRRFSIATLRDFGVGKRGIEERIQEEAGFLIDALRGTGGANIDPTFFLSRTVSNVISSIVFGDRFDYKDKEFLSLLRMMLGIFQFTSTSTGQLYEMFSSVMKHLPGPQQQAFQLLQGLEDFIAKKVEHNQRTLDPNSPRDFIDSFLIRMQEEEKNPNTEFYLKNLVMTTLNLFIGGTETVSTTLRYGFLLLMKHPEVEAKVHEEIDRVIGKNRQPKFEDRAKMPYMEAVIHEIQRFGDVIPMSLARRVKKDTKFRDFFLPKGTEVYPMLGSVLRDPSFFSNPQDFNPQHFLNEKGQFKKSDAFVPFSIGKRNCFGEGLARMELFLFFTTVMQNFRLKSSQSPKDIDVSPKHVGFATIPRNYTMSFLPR

Cytochrome P450 1A1 = Cytochrome P450 1A1 (Homo sapiens, UniProt P04798); experiment: Activity of human CYP1A1 assessed as compound formation treated with 2 and 20 uM brivanib for 20 mins by LC/MS analysis in presence of NADPH; format: ADME
Sequence of Cytochrome P450 1A1 (P04798 whole entry): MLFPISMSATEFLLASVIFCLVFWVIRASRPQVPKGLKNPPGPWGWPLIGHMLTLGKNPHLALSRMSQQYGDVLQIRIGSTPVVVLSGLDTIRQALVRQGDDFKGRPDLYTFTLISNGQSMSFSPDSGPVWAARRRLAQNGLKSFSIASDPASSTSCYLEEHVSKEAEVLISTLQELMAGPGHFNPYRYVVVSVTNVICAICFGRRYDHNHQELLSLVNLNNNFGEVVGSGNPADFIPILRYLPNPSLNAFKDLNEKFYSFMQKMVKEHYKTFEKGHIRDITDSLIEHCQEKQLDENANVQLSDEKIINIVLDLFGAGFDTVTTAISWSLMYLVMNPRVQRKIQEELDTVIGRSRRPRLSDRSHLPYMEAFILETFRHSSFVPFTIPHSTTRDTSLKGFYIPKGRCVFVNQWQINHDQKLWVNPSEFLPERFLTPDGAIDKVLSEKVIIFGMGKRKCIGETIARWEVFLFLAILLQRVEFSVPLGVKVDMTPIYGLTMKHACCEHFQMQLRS

Liver microsome [4] = experiment: Drug level in human liver microsomes treated with 2 and 20 uM brivanib for 30 mins by LC/MS analysis in presence of 10 uM CYP2C9 inhibitor sulfaphenazole; format: ADME; details: 0.5 h
Liver microsome [5] = experiment: Drug level in human liver microsomes treated with 2 and 20 uM brivanib for 30 mins by LC/MS analysis in presence of 50 uM CYP2E1 inhibitor diethyldithiocarbamate; format: ADME; details: 0.5 h
Liver microsome [6] = experiment: Drug level in human liver microsomes treated with 2 and 20 uM brivanib for 30 mins by LC/MS analysis in presence of 3 uM CYP2C8 inhibitor montekulast; format: ADME; details: 0.5 h
Liver microsome [7] = experiment: Drug level in human liver microsomes treated with 2 and 20 uM brivanib for 30 mins by LC/MS analysis in presence of 1 uM CYP2D6 inhibitor quinidine; format: ADME; details: 0.5 h
Cytochrome P450 1A2 = target: T4, Cytochrome P450 1A2 (Homo sapiens, UniProt P05177); experiment: Activity of human CYP1A2 assessed as compound formation treated with 2 and 20 uM brivanib for 20 mins by LC/MS analysis in presence of NADPH; format: ADME
T4 sequence (P05177 whole entry): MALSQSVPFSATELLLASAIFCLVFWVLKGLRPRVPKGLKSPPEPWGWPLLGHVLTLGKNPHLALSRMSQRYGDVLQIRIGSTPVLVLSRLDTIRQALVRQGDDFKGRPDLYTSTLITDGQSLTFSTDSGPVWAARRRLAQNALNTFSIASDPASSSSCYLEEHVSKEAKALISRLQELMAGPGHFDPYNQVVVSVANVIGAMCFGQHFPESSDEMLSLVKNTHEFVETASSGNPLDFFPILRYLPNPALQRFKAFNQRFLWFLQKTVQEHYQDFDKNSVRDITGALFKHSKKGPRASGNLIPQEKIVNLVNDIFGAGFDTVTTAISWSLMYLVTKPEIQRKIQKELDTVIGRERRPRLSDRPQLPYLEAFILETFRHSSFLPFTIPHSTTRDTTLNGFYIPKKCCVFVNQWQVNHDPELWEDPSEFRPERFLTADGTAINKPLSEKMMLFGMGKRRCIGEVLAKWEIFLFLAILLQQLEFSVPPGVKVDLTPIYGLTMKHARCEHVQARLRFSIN

Liver microsome [8] = experiment: Drug metabolism in human liver microsomes assessed as brivanib formation at 2 uM for 60 mins by LC/MS analysis; format: ADME; details: 1 h
Liver microsome [9] = experiment: Drug metabolism in human liver microsomes assessed as 1-(4-(4-fluoro-2-methyl-1H-indol-5-yloxy)-5-methylpyrrolo[1,2-f][1,2,4]triazin-6-yloxy)propan-2-one formation at 2 uM for 60 mins by LC/MS analysis in presence of NADPH; format: ADME
Liver microsome [10] = experiment: Drug metabolism in human liver microsomes assessed as brivanib formation at 2 uM for 60 mins by LC/MS analysis in presence of NADPH; format: ADME; details: 1 h
Liver microsome [11] = experiment: Drug metabolism in human liver microsomes assessed as (R)-1-(4-(4-fluoro-2-(hydroxymethyl)-1H-indol-5-yloxy)-5-methylpyrrolo[1,2-f][1,2,4]triazin-6-yloxy)propan-2-ol formation at 2 uM for 60 mins by LC/MS analysis; format: ADME
Liver microsome [12] = experiment: Drug metabolism in human liver microsomes assessed as 1-(4-(4-fluoro-2-methyl-1H-indol-5-yloxy)-5-methylpyrrolo[1,2-f][1,2,4]triazin-6-yloxy)propan-2-one formation at 2 uM for 60 mins by LC/MS analysis; format: ADME
Liver cytosol [13] = experiment: Drug metabolism in human liver cytosol assessed as (R)-1-(4-(4-fluoro-2-methyl-1H-indol-5-yloxy)-5-methylpyrrolo[1,2-f][1,2,4]triazin-6-yloxy)propane-2-sulfonic acid formation at 2 uM for 2 hrs by LC/MS analysis in presence of PAPS; format: ADME
Liver microsome [14] = experiment: Drug metabolism in human liver microsomes assessed as (R)-4-fluoro-5-(6-(2-hydroxypropoxy)-5-methylpyrrolo[1,2-f][1,2,4]triazin-4-yloxy)-1H-indole-2-carboxylic acid formation at 2 uM for 60 mins by LC/MS analysis; format: ADME
Liver microsome [15] = experiment: Drug metabolism in human liver microsomes assessed as (R)-1-(4-(4-fluoro-2-(hydroxymethyl)-1H-indol-5-yloxy)-5-methylpyrrolo[1,2-f][1,2,4]triazin-6-yloxy)propan-2-ol formation at 2 uM for 60 mins by LC/MS analysis in presence of NADPH; format: ADME
Liver microsome [16] = experiment: Drug metabolism in human liver microsomes assessed as (R)-4-fluoro-5-(6-(2-hydroxypropoxy)-5-methylpyrrolo[1,2-f][1,2,4]triazin-4-yloxy)-1H-indole-2-carboxylic acid formation at 2 uM for 60 mins by LC/MS analysis in presence of NADPH; format: ADME
Liver cytosol [17] = experiment: Drug level in human liver cytosol treated with 2 uM [14C]brivanib alaninate for 2 hrs by LC/MS analysis in presence of PAPS; format: ADME, tissue-based
Sulfotransferase 2A1 = Sulfotransferase 2A1 (Homo sapiens, UniProt Q06520); experiment: Activity of human SULT2A1 assessed as compound formation treated with 2 and 20 uM brivanib for 30 mins by LC/MS analysis in presence of PAPS; format: ADME; details: 0.5 h
Sequence of Sulfotransferase 2A1 (Q06520 whole entry): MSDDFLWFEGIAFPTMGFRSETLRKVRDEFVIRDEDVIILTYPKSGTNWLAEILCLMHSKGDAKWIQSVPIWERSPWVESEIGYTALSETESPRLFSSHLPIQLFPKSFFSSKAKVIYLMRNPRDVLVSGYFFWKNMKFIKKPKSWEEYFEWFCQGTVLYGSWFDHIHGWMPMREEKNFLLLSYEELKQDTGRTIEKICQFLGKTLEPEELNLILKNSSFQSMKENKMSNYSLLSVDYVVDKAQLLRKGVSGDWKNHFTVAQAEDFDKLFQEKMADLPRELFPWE

Sulfotransferase 1B1 = Sulfotransferase 1B1 (Homo sapiens, UniProt O43704); experiment: Activity of human SULT1B1 assessed as compound formation treated with 2 and 20 uM brivanib for 30 mins by LC/MS analysis in presence of PAPS; format: ADME; details: 0.5 h
Sequence of Sulfotransferase 1B1 (O43704 whole entry): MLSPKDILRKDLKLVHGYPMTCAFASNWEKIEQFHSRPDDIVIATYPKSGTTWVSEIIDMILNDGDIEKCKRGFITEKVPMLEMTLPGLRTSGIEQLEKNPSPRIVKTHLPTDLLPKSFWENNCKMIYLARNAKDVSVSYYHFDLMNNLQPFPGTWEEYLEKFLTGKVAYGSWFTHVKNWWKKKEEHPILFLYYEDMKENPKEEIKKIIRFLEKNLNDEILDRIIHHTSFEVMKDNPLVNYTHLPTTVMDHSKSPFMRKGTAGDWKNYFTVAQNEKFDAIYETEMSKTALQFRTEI

Sulfotransferase 1E1 = Sulfotransferase 1E1 (Homo sapiens, UniProt P49888); experiment: Activity of human SULT1E1 assessed as compound formation treated with 2 and 20 uM brivanib for 30 mins by LC/MS analysis in presence of PAPS; format: ADME; details: 0.5 h
Sequence of Sulfotransferase 1E1 (P49888 whole entry): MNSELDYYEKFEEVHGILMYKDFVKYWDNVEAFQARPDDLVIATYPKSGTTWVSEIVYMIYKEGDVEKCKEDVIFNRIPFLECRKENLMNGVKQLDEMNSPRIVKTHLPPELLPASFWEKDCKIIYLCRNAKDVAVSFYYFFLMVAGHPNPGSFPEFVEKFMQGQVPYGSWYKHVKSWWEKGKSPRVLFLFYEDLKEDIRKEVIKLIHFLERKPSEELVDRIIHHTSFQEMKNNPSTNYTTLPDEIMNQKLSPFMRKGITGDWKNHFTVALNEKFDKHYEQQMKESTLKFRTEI

Sulfotransferase 1A1 = Sulfotransferase 1A1 (Homo sapiens, UniProt P50225); experiment: Activity of human SULT1A1 assessed as compound formation treated with 2 and 20 uM brivanib for 30 mins by LC/MS analysis in presence of PAPS; format: ADME; details: 0.5 h
Sequence of Sulfotransferase 1A1 (P50225 whole entry): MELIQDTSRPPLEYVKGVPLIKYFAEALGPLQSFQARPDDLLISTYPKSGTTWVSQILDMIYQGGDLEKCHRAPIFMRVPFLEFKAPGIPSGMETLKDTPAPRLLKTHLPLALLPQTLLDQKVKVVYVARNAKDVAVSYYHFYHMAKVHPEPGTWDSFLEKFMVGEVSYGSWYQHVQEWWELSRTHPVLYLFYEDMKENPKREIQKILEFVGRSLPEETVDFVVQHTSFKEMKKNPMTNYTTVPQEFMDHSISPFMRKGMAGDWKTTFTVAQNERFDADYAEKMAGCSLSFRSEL

Sulfotransferase 1A3 = Sulfotransferase 1A3 (Homo sapiens, UniProt P0DMM9); experiment: Activity of human SULT1A3 assessed as compound formation treated with 2 and 20 uM brivanib for 30 mins by LC/MS analysis in presence of PAPS; format: ADME; details: 0.5 h
Sequence of Sulfotransferase 1A3 (P0DMM9 whole entry): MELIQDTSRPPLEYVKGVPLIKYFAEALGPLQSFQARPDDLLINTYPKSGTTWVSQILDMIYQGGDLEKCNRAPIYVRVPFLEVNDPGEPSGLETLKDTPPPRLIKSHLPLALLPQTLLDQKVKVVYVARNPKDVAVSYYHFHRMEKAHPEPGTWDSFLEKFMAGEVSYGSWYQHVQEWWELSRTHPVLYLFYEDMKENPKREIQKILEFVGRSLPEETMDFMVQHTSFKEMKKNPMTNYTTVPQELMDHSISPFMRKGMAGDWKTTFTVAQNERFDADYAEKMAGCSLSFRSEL

Drug metabolism (Cytochrome P450 2C19): metabolite_detected
Drug metabolism (Cytochrome P450 2D6): metabolite_detected
Drug metabolism (Liver microsome [1]): metabolite_detected
Drug metabolism (Liver microsome [2]): metabolite_detected
Drug metabolism (Cytochrome P450 3A5): metabolite_detected
Drug metabolism (Cytochrome P450 1B1): metabolite_detected
Drug metabolism (Cytochrome P450 2C9): metabolite_detected
Drug metabolism (Cytochrome P450 2B6): metabolite_detected
Drug metabolism (Cytochrome P450 2C8): metabolite_detected
Drug metabolism (Liver microsome [3]): metabolite_detected
Drug metabolism (Cytochrome P450 3A4): metabolite_detected
Drug metabolism (Cytochrome P450 2A6): metabolite_detected
Drug metabolism (Cytochrome P450 1A1): metabolite_detected
Drug metabolism (Liver microsome [4]): metabolite_detected
Drug metabolism (Liver microsome [5]): metabolite_detected
Drug metabolism (Liver microsome [6]): metabolite_detected
Drug metabolism (Liver microsome [7]): metabolite_detected
Drug metabolism (Cytochrome P450 1A2): metabolite_detected
Compound: Cc1c(OC[C@@H](C)O)cn2ncnc(Oc3ccc4[nH]c(CO)cc4c3F)c12

Drug metabolism (Liver microsome [8]): metabolite_detected
Drug metabolism (Liver microsome [9]): metabolite_detected
Drug metabolism (Liver microsome [10]): metabolite_detected
Drug metabolism (Liver microsome [11]): metabolite_not_detected
Drug metabolism (Liver microsome [12]): metabolite_not_detected
Drug metabolism (Liver cytosol [13]): metabolite_detected
Drug metabolism (Liver microsome [14]): metabolite_not_detected
Drug metabolism (Liver microsome [15]): metabolite_detected
Drug metabolism (Liver microsome [16]): metabolite_detected
Compound: Cc1cc2c(F)c(Oc3n[14cH]nn4cc(OC[C@@H](C)OC(=O)[C@H](C)N)c(C)c34)ccc2[nH]1

Drug metabolism (Liver cytosol [17]): metabolite_detected
Drug metabolism (Sulfotransferase 2A1): metabolite_detected
Drug metabolism (Sulfotransferase 1B1): metabolite_detected
Drug metabolism (Sulfotransferase 1E1): metabolite_detected
Drug metabolism (Sulfotransferase 1A1): metabolite_detected
Drug metabolism (Sulfotransferase 1A3): metabolite_detected
Compound: Cc1cc2c(F)c(Oc3ncnn4cc(OC[C@@H](C)OS(=O)(=O)O)c(C)c34)ccc2[nH]1
